Like-named read-outs stand apart in the source and are kept apart here.
Experiments:
[1] = Stability in human liver S9 fractions; assay type: in vitro ADME
[2] = Pharmacokinetics in C57BL/6J mice; assay type: in vivo; conditions: mouse, plasma
Experimental: Next, we evaluated the pharmacokinetics (PK) of LD4172 in C57BL/6J (B6) mice (Fig. 4A).
(§1) Figure 4 LD4172 synergizes with Anti-PD1 to inhibit tumor growth. A, Plasma concentrations of LD4172 in C57BL/6J mice administered 1 mg/kg intravenously (i.v.) or 10 mg/kg intraperitoneally (i.p.) (n=4). B, Representative immunoblots of RIPK1 in different tissues of C57BL/6J mice treated with LD4172 (n=3–4). C, Densitometric analysis of RIPK1 protein levels in different tissues (n=3 or 4). D, Representative immunoblots of RIPK1 levels of B16F10 cells transduced with gRNA specific for RIPK1 or non-targetable control (sgNC). E, B16F10-RIPK1-KO tumors sensitized to anti-PD1 treatment: 3×10^5 B16F10 cells transduced with gRNA specific for RIPK1 or non-targetable control (sgNC) were inoculated into C57BL/6J mice. After seven days, mice with measurable tumors (~100 mm3) were randomly treated with or without anti-PD1 in vivo (100 μg per dose, i.p., every three days, n=8). F, Tumor growth curve of mice with B16F10 tumors treated with LD4172 and/or anti-PD1 (n=8). C57B6/J mice were subcutaneously inoculated with 3×10^5 B16F10 tumor cells. After seven days (tumor size ~ 100 mm3), mice were treated every three days with anti- PD1 (100 μg per dose, i.p.), daily with LD4172 (20 mg/kg, i.p.), a combination of LD4172 and anti-PD1 (same dose as their individual doses), or their corresponding vehicle control. G, Kaplan-Meier survival curve for all experimental groups. H, Final tumor weight (g) from F after 22d of treatment (n=8). I, Representative images of B16F10 tumors collected at the end of treatment. J, Mouse body weight (n=8). K, Tumor growth curve of mice with B16F10 tumors treated with T2I and/or anti-PD1 (n=8). The experimental conditions and treatment regimens were the same as F except using the RIPK1 kinase inhibitor T2I (20 mg/kg, i.p.) to replace LD4172. Representative data from at least three independent experiments are shown. Data are expressed as the mean ± SEM. * p<0.05; ** p<0.01; *** p<0.001, **** p<0.0001, respectively. ns, indicates no statistical significance.

RIPK1 = molecular target: T1, RIPK1 (Mus musculus, UniProt Q60855); test: In vivo pharmacodynamics: RIPK1 levels in tissues; design: observed a 60% reduction in RIPK1 levels in tumors; from tissue; host or cells: tumors, spleen, lymph nodes, PBMCs, lungs, bone marrow of C57BL/6J mice; species or system C57BL/6J mice
T1 sequence (Q60855 1-656): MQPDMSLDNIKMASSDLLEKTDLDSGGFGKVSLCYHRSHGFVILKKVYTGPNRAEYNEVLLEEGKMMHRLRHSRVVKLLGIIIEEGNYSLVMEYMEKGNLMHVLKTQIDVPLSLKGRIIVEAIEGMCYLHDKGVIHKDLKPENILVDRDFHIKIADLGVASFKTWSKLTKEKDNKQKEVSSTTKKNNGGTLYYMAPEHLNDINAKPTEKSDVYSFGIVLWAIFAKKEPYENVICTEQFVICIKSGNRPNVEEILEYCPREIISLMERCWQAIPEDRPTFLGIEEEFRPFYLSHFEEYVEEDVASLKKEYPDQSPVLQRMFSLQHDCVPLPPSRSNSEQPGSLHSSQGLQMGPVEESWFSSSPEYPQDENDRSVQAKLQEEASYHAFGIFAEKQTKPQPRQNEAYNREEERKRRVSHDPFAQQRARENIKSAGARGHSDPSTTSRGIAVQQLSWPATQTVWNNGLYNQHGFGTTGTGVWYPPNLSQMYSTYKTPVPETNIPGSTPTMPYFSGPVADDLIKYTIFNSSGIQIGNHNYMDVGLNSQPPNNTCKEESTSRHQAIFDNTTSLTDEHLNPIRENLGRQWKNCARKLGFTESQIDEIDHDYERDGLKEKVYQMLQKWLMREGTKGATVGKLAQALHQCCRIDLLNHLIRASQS
Experimental: as §1
To investigate the pharmacodynamics of LD4172 in vivo, we administered LD4172 via the i.p. route and observed a 60% reduction in RIPK1 levels in tumors (20 mg/kg, b.i.d., i.p.) (Fig. 4B–C).

SMILES: Cc1ncsc1-c1ccc([C@H](C)NC(=O)[C@@H]2C[C@@H](O)CN2C(=O)[C@@H](NC(=O)CCCCCCCCCCC(=O)NCCCn2cc(-c3ccc4c(c3)CCN4C(=O)Cc3cccc(OC(F)(F)F)c3)c3c(N)ncnc32)C(C)(C)C)cc1 [LD4172]
- half-life [1]: 21.1 min
- intrinsic clearance (CLint) [1]: 32.8 μL·min^− 1·mg^− 1 protein
- bioavailability ([2]; intraperitoneal, i.p. 10 mg/kg vs i.v. 1 mg/kg): 39%
- AUC ([2]; ip, 10 mg/kg i.p., read-out: AUC): 2.7 µM·h
- Cmax ([2]; ip, 10 mg/kg i.p., read-out: Cmax): 2.9 µM
- half-life ([2]; ip, 10 mg/kg i.p., read-out: t1/2 (converted)): 90 min
- clearance ([2]; iv, 1 mg/kg i.v.): 19.8 ± 1.8 mL/min/kg
- AUC ([2]; iv, 1 mg/kg i.v., read-out: area under the concentration-time curve (AUC)): 0.7 ± 0.07 µM·h
- half-life ([2]; iv, 1 mg/kg i.v., read-out: half-life (t1/2) (converted)): 198 ± 126 min
- Cmax ([2]; iv, 1 mg/kg i.v., read-out: maximum plasma concentration (Cmax)): 6.3 ± 0.8 µM
- Vd ([2]; iv, 1 mg/kg i.v., read-out: volume of distribution (Vd)): 1.1 ± 0.2 L/kg
- reduction in RIPK1 levels in tumors (RIPK1; 20 mg/kg, b.i.d., i.p.): 60%
- RIPK1 degradation in lymph nodes, PBMCs, lungs, and bone marrow (RIPK1; i.p.): no significant RIPK1 degradation
- RIPK1 degradation in the spleen (RIPK1; i.p.): less than 50%
- RIPK1 degradation in tumors, intratumoral administration (RIPK1; intratumoral vs i.p.): improved RIPK1 degradation in the tumors

From article PMC11042424, “Development of a First-in-Class RIPK1 Degrader to Enhance Antitumor Immunity” (Research Square, 2024)
